Source: patent US7731985B2, “4-aminopyrimidines and their use for the antimicrobial treatment of surfaces” (Ciba Specialty Chemicals Corporation, priority 2002, dated 2010)

Legend:
Experiment in all cases: MIC in microtitre plates (Example 10)
Type in all cases: cell-based
Design in all cases: unit not given here
Details in all cases: microtitre plate, 48 hours at 37° C., ≦20% growth
[1] = system: Candida albicans ATCC 10231 (=CA)
Procedure: (§1) Determination of the Minimum Inhibitory Concentration (MIC Value) in Microtitre Plates Casein/soymeal peptone broth for preparation of pre-cultures of test bacteria and yeast Bacteria: • Pseudomonas aeruginosa CIP A-22 (=PA) • Escherichia coli NCTC 8196 (=EC) • Staphylococcus aureus ATCC 9144 (=SA) • Candida albicans ATCC 10231 (=CA) The test substances are pre-dissolved in dimethyl sulfoxide (DMSO) and tested in a dilution series of 1:2. Bacteria and yeast are cultured overnight in CASO broth. All the test organism suspensions are adjusted to an organism count of 1-5×10^6 CFU/ml using […] sodium chloride solution. The test substances are pre-pipetted into microtitre plates in amounts of 8 μl per well. The pre-adjusted organism suspensions are diluted 1:100 in CASO broth and are added in amounts of 192 μl per well to the test substances. The test batches are incubated for 48 hours at 37° C. The incubation, the growth is determined on the basis of the turbidity of the test batches (optical density) at 620 nm in a microplate reader. The minimum inhibitory concentration (MIC value) is the concentration of substance at which (compared to the growth of the control) an appreciable inhibition of growth (≦20% growth) of the test organisms is observed. Three microtitre plates are used for each test organism and substance concentration. All the substances are tested in duplicate.

[2] = system: Escherichia coli NCTC 8196 (=EC)
Procedure: as §1

[3] = system: Pseudomonas aeruginosa CIP A-22 (=PA)
Procedure: as §1

[4] = system: Staphylococcus aureus ATCC 9144 (=SA)
Procedure: as §1

| MIC CA [1] | MIC EC [2] | MIC PA [3] | MIC SA [4] | Compound |
| --- | --- | --- | --- | --- |
| 7.5 | 15 | <120 | 15 | CCCCCCCCCCCCNc1cc(C)nc(-c2cccs2)n1 [compound 86] |
| 7.5 | 15 | <120 | 15 | CCCCCCCCCCCCNc1cc(C)nc(-c2ccccc2)n1 [compound 87] |
| 7.5 | 15 | <120 | 15 | CCCCCCCCCCCCNc1cc(C)nc(-c2ccncc2)n1 [compound 88] |
| <3.75 | <3.75 | >120 | <3.75 | CCCCCCCCCCCCNc1cc(C)nc(C)n1 [compound 89] |
| <3.75 | 15 | >120 | 7.5 | CCCCCCCCCCCCNc1cc(C)nc(-c2cccc(N)c2)n1 [compound 90] |
| 15 | 30 | >120 | 30 | CCCCCCCCCCCCNc1cc(C)nc(-c2ccc(C)cc2)n1 [compound 91] |
| 7.5 | 15 | >120 | <3.75 | CCCCCCCCCCCCNc1cc(C)nc(C2CC2)n1 [compound 92] |
| 7.5 | 15 | >120 | <3.75 | CCCCCCCCCCCCNc1cc(C)nc(C(C)C)n1 [compound 93] |
| 7.5 | 15 | >120 | <3.75 | CCCCCCCCCCCCNc1cc(C)nc(-c2csc(C)n2)n1 [compound 94] |
| 15 | 30 | >120 | 15 | CCCCCCCCCCCCNc1cc(C)nc(-c2ccc(C)c(F)c2)n1 [compound 95] |
| 15 | 30 | >120 | 15 | CCCCCCCCCCNc1cc(C)nc(-c2ccc(-c3ccccc3)cc2)n1 [compound 96] |
| 15 | 15 | >120 | 7.5 | CCCCCCCCCCNc1cc(C)nc(-c2ccc(-c3ccccc3)cc2)n1 [compound 97] |
| 15 | 15 | >120 | 15 | CCCCCCCCCCNc1cc(C)nc(-c2cccs2)n1 [compound 98] |
| 30 | 15 | >120 | 15 | CCCCCCCCCCNc1cc(C)nc(-c2ccccc2)n1 [compound 99] |
| 15 | 15 | >120 | 15 | CCCCCCCCCCNc1cc(C)nc(-c2ccncc2)n1 [compound 100] |
| 7.5 | 7.5 | >120 | 7.5 | CCCCCCCCCCNc1cc(C)nc(C)n1 [compound 101] |
| 15 | 30 | >120 | 7.5 | CCCCCCCCCCNc1cc(C)nc(-c2cccc(N)c2)n1 [compound 102] |
| 30 | 60 | >120 | 15 | CCCCCCCCCCNc1cc(C)nc(-c2ccc(C)cc2)n1 [compound 103] |
| 7.5 | 7.5 | >120 | <3.75 | CCCCCCCCCCNc1cc(C)nc(C2CC2)n1 [compound 104] |
| 7.5 | 15 | >120 | 7.5 | CCCCCCCCCCNc1cc(C)nc(C(C)C)n1 [compound 105] |
| 15 | 15 | >120 | <3.75 | CCCCCCCCCCNc1cc(C)nc(-c2csc(C)n2)n1 [compound 106] |
| 15 | 15 | >120 | 7.5 | CCCCCCCCCCNc1cc(C)nc(-c2ccc(C)c(F)c2)n1 [compound 107] |
| >120 | >120 | >120 | 30 | CCCCCCNc1cc(C)nc(-c2ccc(-c3ccccc3)cc2)n1 [compound 108] |
| 30 | 60 | >120 | 15 | CCCCCCNc1cc(C)nc(-c2ccc(C(C)(C)C)cc2)n1 [compound 109] |
| 120 | >120 | >120 | 60 | CCCCCCNc1cc(C)nc(-c2cccs2)n1 [compound 110] |

| MIC CA [1] | MIC EC [2] | MIC PA [3] | MIC SA [4] | Compound |
| --- | --- | --- | --- | --- |
| 60 | 120 | >120 | 7.5 | CCCCCCNc1cc(C)nc(-c2ccccc2)n1 [compound 111] |
| 30 | 120 | >120 | 15 | CCCCCCNc1cc(C)nc(-c2ccncc2)n1 [compound 112] |
| 30 | 120 | >120 | 7.5 | CCCCCCNc1cc(C)nc(C)n1 [compound 113] |
| 30 | >120 | >120 | 15 | CCCCCCNc1cc(C)nc(-c2cccc(N)c2)n1 [compound 114] |
| 120 | >120 | >120 | 7.5 | CCCCCCNc1cc(C)nc(-c2ccc(C)cc2)n1 [compound 115] |
| 15 | 60 | >120 | 7.5 | CCCCCCNc1cc(C)nc(C2CC2)n1 [compound 116] |
| 30 | 120 | >120 | 15 | CCCCCCNc1cc(C)nc(C(C)C)n1 [compound 117] |
| 15 | 60 | >120 | 7.5 | CCCCCCNc1cc(C)nc(-c2csc(C)n2)n1 [compound 118] |
| 120 | >120 | >120 | 7.5 | CCCCCCNc1cc(C)nc(-c2ccc(C)c(F)c2)n1 [compound 119] |
| 30 | 120 | >120 | 30 | CCCCCCNc1cc(C)nc(-c2ccc(N)cc2)n1 [compound 120] |
| >120 | >120 | >120 | 30 | CCCCN(CCCC)c1cc(C)nc(-c2ccncc2)n1 [compound 121] |
| 120 | >120 | >120 | 30 | CCCCN(CCCC)c1cc(C)nc(-c2csc(C)n2)n1 [compound 122] |
| >120 | >120 | >120 | 120 | CCCCN(C)c1cc(C)nc(-c2ccc(C(C)(C)C)cc2)n1 [compound 123] |
| 60 | 120 | >120 | 60 | CCCCN(C)c1cc(C)nc(-c2cccs2)n1 [compound 124] |
| 120 | >120 | >120 | 120 | CCCCN(C)c1cc(C)nc(-c2ccncc2)n1 [compound 125] |
| 120 | >120 | >120 | 120 | CCCCN(C)c1cc(C)nc(C)n1 [compound 126] |
| 60 | >120 | >120 | 60 | CCCCN(C)c1cc(C)nc(C2CC2)n1 [compound 127] |
| 120 | >120 | >120 | 120 | CCCCN(C)c1cc(C)nc(C(C)C)n1 [compound 128] |
| 120 | >120 | >120 | 120 | CCCCN(C)c1cc(C)nc(-c2csc(C)n2)n1 [compound 129] |
| >120 | >120 | >120 | 120 | CCCCN(C)c1cc(C)nc(-c2ccc(C)c(F)c2)n1 [compound 130] |
| >120 | >120 | >120 | 120 | CCCCC(CC)CNc1cc(C)nc(-c2ccc(C(C)(C)C)cc2)n1 (stereo not shown) [compound 131] |
| >120 | >120 | >120 | 60 | CCCCC(CC)CNc1cc(C)nc(-c2cccs2)n1 (stereo not shown) [compound 132] |
| >120 | >120 | >120 | 15 | CCCCC(CC)CNc1cc(C)nc(-c2ccccc2)n1 (stereo not shown) [compound 133] |
| 120 | >120 | >120 | 7.5 | CCCCC(CC)CNc1cc(C)nc(-c2ccncc2)n1 (stereo not shown) [compound 134] |
